Reference: patent publication US10780094B2, “Use of carbonic anhydrase inhibitors for treatment of neurological and psychiatric disorders” (New York University, priority 2016, dated 2020)

How the values were obtained:
[1] = tested on: caspase 9 in SH-SY5Y neuronal cells; assay: Caspase-Glo 9 activity after Aβ challenge; assay type: cell-based, human; settings: for caspase 9 activation: Example 2/3, FIG. 16C, 22
Method: Caspase 9 and caspase 3/7 activation was measured by luminescent assays (Caspase-Glo 9 and caspase-Glo 3/7, Promega, Madison, Wis.), in cells treated with the Aβ peptides in DMEM without FBS. Briefly, 10,000 cells/well were plated in 96 wells plates and incubated for 24 hours with the freshly solubilized Aβ peptides. Caspase-Glo reagent was added to the cell cultures resulting in cell lysis, followed by caspase cleavage of the substrate and generation of a luminescent signal produced by the luciferase reaction. After 40 minutes incubation, the amount of caspase activity was evaluated in a plate-reading luminometer (Synergy HT Multi-Mode Microplate Reader, Biotek, Winooski, Vt.) as described in (Fossati et al., 2012b). To inhibit non-specific background activity, the proteasome inhibitor MG-132 was added to the Caspase-Glo reagent before the experiment as indicated by the manufacturer. In all cases results are expressed as fold-change compared to untreated control cells.
(§1) Cells were plated at a confluence of 10.000 cells per well in 96-wells microplate luminescence microtiter (ThermoFisher, Waltham, Mass., US). The day after, cells were treated with the peptides and/or drugs for the experimental times. After that, caspase-Glo 9 assay was performed, following the protocol provided from the manufacturer. Luminescence was measured using a FlexStation 3 Multi-Mode Microplate Reader (Molecular devices, Sunnyvalem Calif., US).

[2] = tested on: caspase 9 in D3 cells; assay: Caspase-Glo 9 activity after Aβ challenge; assay type: cell-based, human; settings: Example 2/3; FIG. 16D, 22
Method: as §1

[3] = tested on: D3 cells; assay: Mitochondrial and cytoplasmic calcium assay (Rhod-2 AM, Fluo-4 AM); assay type: cell-based, human; settings: highest doses; 45 minutes
Method: This assay was performed as published in [60]. Briefly, cells were plated on 25 mm optical borosilicate poly-L-lysine-coated sterile glass covers, (ThermoFisher, Waltham, Mass., US) at a 70% confluence. 24 hours later, cells were loaded with 5 μM Rhod-2 AM or 2.5 μM Fluo-4 AM on HBSS for 45 minutes. Then, cells were washed twice with HBSS and incubated for another additional 15 minutes on fresh HBSS, without Rhod-2 AM or Fluo-4 AM. After that, HBSS was replaced again by fresh HBSS, glasses were mounted on microscopy chambers and experiments were conducted, after adding the pre-aggregated peptides and/or the drugs. Cells were mounted on Sykes-Moores chambers (BellCo, Vineland, N.J., US) and imaged every 15 seconds for 45 min, at a 20× magnification, using a Nikon fluorescent microscope (Chiyoda, Tokyo, Japan). Images were processed using NIS-Elements and ImageJ software. Due to the rapidity of this experiment, the peptide was pre-aggregated as described above to obtain oligomers before being added to the cells.

[4] = tested on: TgSwDI mice; assay: Contextual fear conditioning; assay type: in vivo, mouse; settings: short-term treatment (3 months)
[5] = tested on: TgSwDI mice; assay: Barnes Maze spatial memory testing; assay type: in vivo, mouse; settings: for behavioral phenotypes (Barnes maze): given with diet; for distance traveled, probe trial / mistakes, probe trial: in the diet for 8 months, 15-20 mg/kg/day; for distance traveled, probe trial / mistakes, probe trial / distance traveled in trial 10 (last trial): tested at 15-16 months; for distance traveled in trial 10 (last trial): treated for 8 months
Source text: The Barnes Maze was used to provide an index of spatial learning and memory. The task capitalizes on the motivation of mice to seek refuge from loud, open and brightly-lit spaces. Mice were trained across a series of trials to successfully navigate to a hidden escape chamber using information provided by distal spatial cues. The Barnes Maze consists of a relatively large (36″ in diameter), circular platform with a beige textured surface that is elevated 36″ from the floor (San Diego Instruments, San Diego USA). The platform has twenty 2″ diameter holes that are equally spaced around the periphery of the platform (1″ from the edge). A grey plastic escape box (˜10 cm×8.5 cm×4 cm) is located under only one of the holes, the location of which is constant for each subject but variable across subjects and counterbalanced across groups. The surface of the Barnes maze is brightly-lit (500-600 lux), illuminated by an overhead lamp (60-100 W) placed approximated 30″ above the center of the platform. Visible distal cues were placed around the room and remained constant throughout the testing period. An overhead video camera and specialized software (Noldus Ethovision 11.5) was used to track the locomotor trajectories of the mice. Mice were trained for six consecutive daily testing sessions (2 trials/day for 5 days, and probe test on day 6).
On each testing day, mice were brought to the testing room for a minimum of 30 mins prior to testing in order to acclimate to transport and testing room conditions. On the first day of testing, each mouse was gently removed from its home cage by the base of its tail and placed in the center of the platform and kept within an inverted 500 ml beaker for 1 min. A white noise generator (San Diego Instruments) was turned on (˜90-100 dB) when the mouse was placed onto the maze. After the 1-min period, the beaker was slowly moved (over the course of 1 min) to the target hole with the mouse freely moving but confined underneath. Care was taken not to catch the tail or paws of the mouse while moving the beaker. The mouse was then permitted, or was gently guided by the experimenter using the beaker, to enter the escape box and was given 2 min inside before being transported back to its home cage within the escape box. The white noise was turned off as soon as the mouse entered the escape box. The platform and start box were cleaned thoroughly with 30% ethanol and allowed to dry fully before each trial. To ensure that distal spatial cues rather than local intramaze cues were being used to help guide navigation to the escape box, the maze was rotated after each training trial and the escape box re-positioned to always be in the identical spatial location within the room.
After the initial beaker trial, each mouse was given 2 training trials per day. During training trials, mice were placed in the center of the platform within an plastic 6″l×6″w×8″h start box. The white noise generator was turned on and, after 10-15 s delay, the start box was lifted. The mouse was permitted a maximum of 3 min to find the designated hole and escape box. When a mouse entered the escape box the white noise was turned off and they were given approximately 1 additional min inside the box before being transferred back to the home cage. […] A 90-120 min inter-trial interval separated the two training trials on each daily session.
Twenty four hours after (Day 6) the fifth training session, a 3-min probe trial was given, conducted identically as the training trials but where the escape box had been removed. This probe was used to examine search behavior patterns and to help control for possible strategies that use local cues from the escape box.
Spatial learning and memory was inferred based on the latency, distance and number of errors (other holes visited) that was required for the mouse to successfully navigate to the escape box. […]

[6] = tested on: mitochondrial CA; settings: reference (16); cited from earlier work

SMILES	caspase 9 over-activation ([1]; 100 or 300 μM MTZ, 10 μM Aβ42, 24 hours)	caspase 9 activation [1]	caspase 9 activity, drug alone ([1]; MTZ alone in absence of Aβ)	caspase 9 activation [2]	Aβ-induced decrease in mitochondrial and cytoplasmic Ca2+ [3]	increase of freezing in contextual fear conditioning [4]	behavioral phenotypes (Barnes maze) [5]	distance traveled, probe trial [5]	mistakes, probe trial [5]	distance traveled in trial 10 (last trial) [5]	activity on mitochondrial CA [6]
CC(=O)/N=c1/sc(S(N)(=O)=O)nn1C [MTZ, methazolamide]	completely inhibited	protective effect	did not have any effect	protective effect	counteract the effect exerted by the peptide	normalizing effect	ameliorate behavioral phenotypes	not significantly higher than WT mice	not significantly higher than WT mice	not significantly higher than WT mice	high activity
CC(=O)Nc1nnc(S(N)(=O)=O)s1 [ATZ, acetazolamide]	–	protective effect	–	protective effect	counteract the effect exerted by the peptide	normalizing effect	ameliorate behavioral phenotypes	not significantly higher than WT mice	not significantly higher than WT mice	not significantly higher than WT mice	high activity
